Measured values as given in patent publication EP1388586A2, “Identification of broadly reactive DR restricted epitopes” (priority 1998, dated 1999).
Read-outs that look alike come from different tables or passages of the source. Ends that are not written are not given here.

Assays:
[1] = tested on: panel of purified HLA DR molecules; type: binding, human;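 note: competitive inhibition of radiolabeled probe peptide binding to purified HLA DR molecules, with inhibitory potency of unlabeled peptides taken as an approximation of affinity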
Experimental: (§1) Class II peptide-binding assays. […] These assays were chosen as to be representative of the most common DR alleles.
(§2) Radiolabeled peptides were iodinated using the chloramine-T method. […] In appropriate stoichiometric conditions, the IC50 of an unlabeled test peptide to the purified DR is a reasonable approximation of the affinity of interaction (Kd). Peptides were tested in two to four completely independent experiments. […] Final detergent concentration in the incubation mixture was 0.05% Nonidet P-40. Assays were performed at pH 7.0 with the exception of DR3, which was performed at pH 4.5, and DRw53, which was performed at pH 5.0.
(§3) All subsequent inhibition and direct binding assays were the performed using these class II concentrations.

DRB1*0101 (DR1) = biological target: T1, DRB1*0101 (DR1) (Homo sapiens, UniProt P01903+P01911, A100R/D57E/F55L/F60I/F76Y/I96L/L162R/M171V/P40L/Q125E/R42F/V115G/Y59C); experiment: Class II peptide-binding assay, DR1;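 note: competition assay: unlabeled test peptides inhibit binding of a radiolabeled probe peptide to purified DR, with half-maximal inhibition taken as an approximate dissociation constant Kd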
T1 construct: used as sources of human HLA class II molecules; endogenous in cells; host or cells: LG2 (EBV-transformed homozygous B cell line)

DRB5*0101 (DR2w2a) = biological target: T2, DRB5*0101 (DR2w2a) (Homo sapiens, UniProt P01903+Q30154); experiment: Class II peptide-binding assay, DR2w2a (DR2w2B2);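 note: competitive binding assay: unlabeled peptide inhibiting binding of a radiolabeled probe peptide to purified DR molecules at pH 7.0, IC50 approximating Kd, lower means stronger binding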
T2 construct: used as sources of human HLA class II molecules; endogenous in cells; host or cells: GM3107 (EBV-transformed homozygous B cell line)

DRB1*0301 (DR3w17) = biological target: T3, DRB1*0301 (DR3w17) (Homo sapiens, UniProt P01903+P01911, A100K/A102G/A103R/A169T/F55Y/I96L/K41T/L162R/M171V/P40S/Q125H/Q178H/Q39Y/R42S/S66N/T106N/T262R/W38E/Y61H); experiment: Class II peptide-binding assay, DR3 (pH 4.5);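 note: unlabeled peptide competing with a radiolabeled probe peptide for binding to affinity-purified HLA-DR3, IC50 regarded as an approximation of Kd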
T3 construct: used as sources of human HLA class II molecules; endogenous in cells; host or cells: MAT (EBV-transformed homozygous B cell line)

DRB1*0401 (DR4w4) = biological target: T4, DRB1*0401 (DR4w4) (Homo sapiens, UniProt P01903+P01911, A100K/A169T/F76Y/I96L/K127E/L162R/M171V/N62H/P40V/Q125Y/R42H/S133A/S149N/S66Y/V115G/V209L/W38E); experiment: Class II peptide-binding assay, DR4w4;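 note: unlabeled test peptides compete with a radiolabeled probe peptide for binding to affinity-purified HLA-DR, with DR amount titrated to capture a small fraction of label, IC50 approximating Kd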
T4 construct: used as sources of human HLA class II molecules; endogenous in cells; host or cells: PREISS (EBV-transformed homozygous B cell line)
Experimental: as §1, §2, §3

DRB10404 (DR4w14) = biological target: T5, DRB10404 (DR4w14) (Homo sapiens, UniProt P01903+P01911, A100R/A169T/F76Y/I96L/K127E/L162R/M171V/N62H/P40V/Q125Y/R42H/S133A/S149N/S66Y/V209L/W38E); experiment: Class II peptide-binding assay, DR4w14;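 note: unlabeled peptides compete with a radiolabeled probe for binding to affinity-purified HLA-DR, neutral pH, class II amount titrated to bind a small fraction of label, IC50 approximates Kd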
T5 construct: used as sources of human HLA class II molecules; endogenous in cells; host or cells: BIN40 (EBV-transformed homozygous B cell line)

DRB1*1101 (DR5w11) = biological target: T6, DRB1*1101 (DR5w11) (Homo sapiens, UniProt P01903+P01911, A100R/A169T/A87E/I96F/K41T/L162R/M171V/P40S/Q125H/Q178H/Q39Y/Q99D/R42S/S66Y/T262R/V115G/W38E); experiment: Class II peptide-binding assay, DR5w11;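 note: competition by unlabeled test peptide against iodinated probe peptide binding to affinity-purified HLA-DR, class II amount titrated beforehand, half-maximal inhibitory concentration read as approximate Kd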
T6 construct: used as sources of human HLA class II molecules; endogenous in cells; host or cells: SWEIG (EBV-transformed homozygous B cell line)
Experimental: as §1, §2, §3

DRB1*0701 (DR7) = DRB1*0701 (DR7) (Homo sapiens, UniProt P01903+P01911, A100R/A102G/A103Q/D57E/D86V/E43K/F76Y/K127E/L162R/M171V/P40G/Q125H/Q99D/R33Q/R42Y/R54Q/S133A/S66F/T210M/V115G/Y107V/Y59L/Y89S); experiment: Class II peptide-binding assay, DR7;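 note: unlabeled peptides compete with an iodinated probe peptide for binding to affinity-purified HLA-DR at neutral pH, DR amount titered to bind a small tracer fraction, IC50 approximating Kd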
[2] = Table V B) Correct Predictions, 12 DR molecules listed
[3] = read-out: DR1 nM (In IC50 Format), purified HLA DR1
[4] = read-out: DR2w2B2 nM (In IC50 Format), purified HLA DR2w2β2
[5] = read-out: DR3 nM (In IC50 Format), purified HLA DR3
[6] = read-out: DR4w4 nM (In IC50 Format), purified HLA DR4w4
[7] = read-out: DR4w14 nM (In IC50 Format), purified HLA DR4w14
[8] = read-out: DR5w11 nM (In IC50 Format), purified HLA DR5w11
[9] = read-out: DR7 nM (In IC50 Format), purified HLA DR7
[10] = read-out: In IC50 Format DR1, Table VIII
[11] = read-out: In IC50 Format DR2w2β2, Table VIII
[12] = read-out: In IC50 Format DR3, Table VIII
[13] = read-out: In IC50 Format DR4w4, Table VIII
[14] = read-out: In IC50 Format DR4w14, Table VIII
[15] = read-out: In IC50 Format DR5w11, Table VIII
[16] = read-out: In IC50 Format DR7, Table VIII

T3 sequence (P01903 26-254, other chains not shown): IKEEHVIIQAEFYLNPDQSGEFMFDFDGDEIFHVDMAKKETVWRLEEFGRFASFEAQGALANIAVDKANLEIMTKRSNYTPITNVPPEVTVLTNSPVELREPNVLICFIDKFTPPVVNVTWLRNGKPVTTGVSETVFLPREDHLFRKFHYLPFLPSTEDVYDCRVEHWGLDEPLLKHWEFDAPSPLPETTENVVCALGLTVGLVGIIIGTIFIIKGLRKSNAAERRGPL
T6 sequence (P01903 26-254, other chains not shown): as above

Compound | IC50 (DRB1*0101 (DR1); [3]) | IC50 (DRB5*0101 (DR2w2a); [4]) | IC50 (DRB1*0301 (DR3w17); [5]) | IC50 (DRB1*0401 (DR4w4); [6]) | IC50 (DRB10404 (DR4w14); [7]) | IC50 (DRB1*1101 (DR5w11); [8]) | IC50 (DRB1*0701 (DR7); [9]) | other results
CC[C@H](C)[C@H](NC(=O)[C@H](CO)NC(=O)[C@H](CO)NC(=O)[C@H](CC(N)=O)NC(=O)[C@@H](NC(=O)[C@@H](NC(=O)[C@H](CC(N)=O)NC(=O)[C@@H](N)Cc1ccccc1)C(C)C)C(C)C)C(=O)NCC(=O)N[C@@H](CC(C)C)C(=O)N[C@H](C(=O)N[C@@H](CCSC)C(=O)N[C@H](C(=O)N[C@@H](CC(C)C)C(=O)N[C@@H](CO)C(=O)O)C(C)C)[C@@H](C)CC [Peptide 27.384] |  |  |  |  |  |  |  | Total Alleles Bound [1, 2]: 4
CC[C@H](C)[C@H](NC(=O)[C@H](CO)NC(=O)[C@H](CO)NC(=O)[C@H](CC(N)=O)NC(=O)[C@@H](NC(=O)[C@@H](NC(=O)[C@H](CC(N)=O)NC(=O)[C@H](Cc1ccccc1)NC(=O)[C@@H](N)C(C)C)C(C)C)C(C)C)C(=O)NCC(=O)N[C@@H](CC(C)C)C(=O)N[C@H](C(=O)N[C@@H](CCSC)C(=O)N[C@H](C(=O)N[C@@H](CC(C)C)C(=O)O)C(C)C)[C@@H](C)CC [Peptide F107.23] |  |  |  |  |  |  |  | Total Alleles Bound [1, 2]: 4
CC[C@H](C)[C@H](N)C(=O)N[C@@H](CCCCN)C(=O)N[C@@H](CC(C)C)C(=O)N1CCC[C@H]1C(=O)N[C@H](C(=O)N[C@H](C(=O)N[C@@H](CC(C)C)C(=O)N[C@@H](C)C(=O)N[C@@H](Cc1ccccc1)C(=O)N[C@@H](C)C(=O)N[C@H](C(=O)N[C@@H](CS)C(=O)N[C@@H](Cc1ccccc1)C(=O)N[C@@H](CC(C)C)C(=O)N[C@H](C(=O)N1CCC[C@H]1C(=O)O)[C@@H](C)CC)[C@@H](C)O)[C@@H](C)CC)[C@@H](C)CC [Peptide 1136.12] |  |  |  |  |  |  |  | Total Alleles Bound [1]: 4
CC[C@H](C)[C@H](NC(=O)[C@H](CC(=O)O)NC(=O)[C@H](CC(C)C)NC(=O)[C@@H](NC(=O)CNC(=O)[C@@H](NC(=O)[C@@H](NC(=O)[C@@H](NC(=O)[C@@H](NC(=O)[C@H](C)NC(=O)[C@H](CC(C)C)NC(=O)[C@@H](NC(=O)[C@H](CC(N)=O)NC(=O)[C@H](CO)NC(=O)[C@H](CC(C)C)NC(=O)[C@@H](N)CC(N)=O)C(C)C)[C@@H](C)O)[C@@H](C)CC)[C@@H](C)O)[C@@H](C)O)C(C)C)C(=O)O [Peptide 1136.24] |  |  |  |  |  |  |  | Total Alleles Bound [1]: 4
CC(C)C[C@H](NC(=O)CNC(=O)[C@H](C)NC(=O)[C@@H](N)CC(C)C)C(=O)N[C@@H](CC(C)C)C(=O)NCC(=O)N[C@@H](CC(N)=O)C(=O)N[C@H](C(=O)N[C@@H](CO)C(=O)N[C@H](C(=O)N[C@H](C(=O)N[C@@H](CC(C)C)C(=O)N[C@@H](CC(C)C)C(=O)NCC(=O)NCC(=O)O)C(C)C)[C@@H](C)O)C(C)C [Peptide F107.10] |  |  |  |  |  |  |  | Total Alleles Bound [1, 2]: 4
CC(C)C[C@H](NC(=O)CNC(=O)[C@H](C)N)C(=O)N[C@@H](CC(C)C)C(=O)NCC(=O)N[C@@H](CC(N)=O)C(=O)N[C@H](C(=O)N[C@@H](CO)C(=O)N[C@H](C(=O)N[C@H](C(=O)N[C@@H](CC(C)C)C(=O)N[C@@H](CC(C)C)C(=O)NCC(=O)NCC(=O)N[C@H](C(=O)O)C(C)C)C(C)C)[C@@H](C)O)C(C)C [Peptide 1188.13] |  |  |  |  |  |  |  | Total Alleles Bound [1]: 4
CC(C)[C@H](NC(=O)[C@H](CO)NC(=O)[C@@H](NC(=O)[C@H](C)NC(=O)[C@H](CO)NC(=O)[C@H](CO)NC(=O)[C@H](C)NC(=O)[C@H](C)NC(=O)[C@H](Cc1ccc(O)cc1)NC(=O)[C@@H](NC(=O)[C@H](CO)NC(=O)CNC(=O)[C@H](CCC(N)=O)NC(=O)[C@@H]1CCCN1C(=O)[C@@H](N)CCC(=O)O)[C@@H](C)O)[C@@H](C)O)C(=O)N[C@@H](CC(=O)O)C(=O)O [Peptide 1136.71] |  |  |  |  |  |  |  | Total Alleles Bound [1]: 5
YASFVSQTAQRLFY-NH2 [Peptide 717.03] | 0.0019 µM | 0.008 µM | 15.8 µM | 0.011 µM | 6.25 µM | 2.5 µM | 0.025 µM | 
DVFKELKVHHANENI [Peptide 519.00] |  |  |  |  |  |  |  | IC50 (DRB1*0101 (DR1); [10]): 0.0096 µM; IC50 (DRB5*0101 (DR2w2a); [11]): 0.571 µM; IC50 (DRB1*0301 (DR3w17); [12]): 150 µM; IC50 (DRB1*0401 (DR4w4); [13]): 0.0409 µM; IC50 (DRB10404 (DR4w14); [14]): 0.25 µM; IC50 (DRB1*1101 (DR5w11); [15]): 0.118 µM; IC50 (DRB1*0701 (DR7); [16]): 0.463 µM
LVEALYLVSGERGFFYTPKT [Peptide 734.03] | 0.0397 µM | 1.82 µM | 1.57 µM | 1.15 µM | 0.704 µM | 2.5 µM | 0.926 µM | 
LSGSHLVEALYLVSGERGFF [Peptide 734.02] | 0.0144 µM | 2.86 µM | 30 µM | 0.865 µM | 1.02 µM | 10 µM | 0.124 µM | 
NPVVHFFKNIVTPRTPPPS [Peptide 765.09] | 0.0135 µM | 0.158 µM | 50 µM | 0.0074 µM | 0.0357 µM | 0.0187 µM | 0.0668 µM | 
KIAKMEKASSVFNVVNS [Peptide 526.01] |  |  |  |  |  |  |  | IC50 (DRB1*0101 (DR1); [10]): 0.0357 µM; IC50 (DRB5*0101 (DR2w2a); [11]): 3.33 µM; IC50 (DRB1*0301 (DR3w17); [12]): 130 µM; IC50 (DRB1*0401 (DR4w4); [13]): 0.187 µM; IC50 (DRB10404 (DR4w14); [14]): 1.28 µM; IC50 (DRB1*1101 (DR5w11); [15]): 0.0645 µM; IC50 (DRB1*0701 (DR7); [16]): > 1.25 µM
DTVKLMYKGQPMTFRLLLV [Peptide 866.01] |  |  |  |  |  |  |  | IC50 (DRB1*0101 (DR1); read-out: DR1 nM, Table VIII, In IC50 Format): 0.023 µM; IC50 (DRB5*0101 (DR2w2a); read-out: DR2w2B2 nM, Table VIII, In IC50 Format): 0.0077 µM; IC50 (DRB1*0301 (DR3w17); read-out: DR3 nM, Table VIII, In IC50 Format): 42.9 µM; IC50 (DRB1*0401 (DR4w4); read-out: DR4w4 nM, Table VIII, In IC50 Format): 0.176 µM; IC50 (DRB10404 (DR4w14); read-out: DR4w14 nM, Table VIII, In IC50 Format): 10 µM; IC50 (DRB1*1101 (DR5w11); read-out: DR5w11 nM, Table VIII, In IC50 Format): 0.169 µM; IC50 (DRB1*0701 (DR7); read-out: DR7 nM, Table VIII, In IC50 Format): 3.57 µM
RLANSLVHSSNNFGAILSS [Peptide 735.03] | 0.0847 µM | 10 µM | 25 µM | 0.011 µM | 0.0128 µM | 0.202 µM | 0.556 µM | 
KYLEFISEAIIHVLHSR [Peptide 508.01] |  |  |  |  |  |  |  | IC50 (DRB1*0101 (DR1); [10]): 0.294 µM; IC50 (DRB5*0101 (DR2w2a); [11]): 20 µM; IC50 (DRB1*0301 (DR3w17); [12]): 25 µM; IC50 (DRB1*0401 (DR4w4); [13]): 0.136 µM; IC50 (DRB10404 (DR4w14); [14]): 2.5 µM; IC50 (DRB1*1101 (DR5w11); [15]): 4 µM; IC50 (DRB1*0701 (DR7); [16]): 0.338 µM
TSATQRLANSLVHSSNNFG [Peptide 735.02] | 0.111 µM | 10 µM | 33.3 µM | 0.0054 µM | 0.0132 µM | 0.13 µM | 0.373 µM | 
